In data set [1] the test system is Mycosphaerella graminicola (Septoria tritici). As to the kind of experiment: Mycosphaerella graminicola (Septoria tritici) / liquid culture (Septoria blotch). The note with it: Zymoseptoria tritici, PDB, 24° C., inhibition of growth determined photometrically 4-5 days after application, read-out: disease control. It counts as cell-based. Here is the method: 12 Mycosphaerella graminicola (Septoria tritici)/Liquid Culture (Septoria Blotch): Conidia of the fungus from cryogenic storage were directly mixed into nutrient broth (PDB potato dextrose broth). After placing a DMSO solution of test compound into a 96-well microtiter plate at an application rate of 200 ppm, the nutrient broth containing the fungal spores was added. The test plates were incubated at 24° C. and the inhibition of growth was determined photometrically 4-5 days after application.

Data set [2] deals with Gaeumannomyces Graminis. As to the kind of experiment: Gaeumannomyces graminis / liquid culture (take-all of cereals). It counts as cell-based. The note with it: PDB, 24° C., inhibition of growth determined photometrically 4-5 days after application, read-out: disease control. Here is the method: 13 Gaeumannomyces Graminis/Liquid Culture (Take-all of Cereals): Mycelial fragments of the fungus from cryogenic storage were directly mixed into nutrient broth (PDB potato dextrose broth). […] The test plates were incubated at 24° C. and the inhibition of growth was determined photometrically 4-5 days after application.

Data set [3] concerns Glomerella lagenarium (Colletotrichum Lagenarium). As to the kind of experiment: Glomerella lagenarium (Colletotrichum lagenarium) / liquid culture (anthracnose). It counts as cell-based. The note with it: Colletotrichum orbiculare, PDB, 24° C., inhibition of growth measured photometrically 3-4 days after application, read-out: disease control. Here is the method:
10 Glomerella lagenarium (Colletotrichum Lagenarium)/Liquid Culture (Anthracnose): Conidia of the fungus from cryogenic storage were directly mixed into nutrient broth (PDB potato dextrose broth). After placing a DMSO solution of test compound into a 96-well microtiter plate at an application rate of 200 ppm, the nutrient broth containing the fungal spores was added. The test plates were incubated at 24° C. and the inhibition of growth was measured photometrically 3-4 days after application.

Data set [4] has as its system Pythium ultimum. As to the kind of experiment: Pythium ultimum / liquid culture (seedling damping off). It counts as cell-based. The note with it: Globisporangium ultimum, potato dextrose broth, 24° C., inhibition of growth determined photometrically 2-3 days after application, read-out: disease control. Here is the method: 8 Pythium ultimum/Liquid Culture (Seedling Damping Off) Mycelia fragments and oospores of a newly grown liquid culture of the fungus were directly mixed into nutrient broth (potato dextrose broth). After placing a DMSO solution of test compound into a 96-well format microtiter plate at an application rate of 200 ppm, the nutrient broth containing the fungal mycelia/spore mixture was added. The test plates were incubated at 24° C. and the inhibition of growth was determined photometrically 2-3 days after application.

The test system of data set [5] is Monographella nivalis (Microdochium nivale). As to the kind of experiment: Monographella nivalis (Microdochium nivale) / liquid culture (foot rot cereals). In kind it is cell-based. The note with it: PDB, 24° C., inhibition of growth determined photometrically 4-5 days after application, read-out: disease control. The protocol:
14 Monographella nivalis (Microdochium nivale)/liquid culture (foot rot cereals): Conidia of the fungus from cryogenic storage were directly mixed into nutrient broth (PDB potato dextrose broth). After placing a DMSO solution of test compound into a 96-well microtiter plate at an application rate of 200 ppm, the nutrient broth containing the fungal spores was added. The test plates were incubated at 24° C. and the inhibition of growth was determined photometrically 4-5 days after application.

Data set [6] relates to Plasmopara viticola. As to the kind of experiment: whole plant or invertebrate. In kind it is in vivo. The note with it: foliar, read-out: disease control.
Data set [7] deals with Mycosphaerella arachidis (Cercospora arachidicola). As to the kind of experiment: Mycosphaerella arachidis (Cercospora arachidicola) / liquid culture (early leaf spot). In kind it is cell-based. The following applies: PDB, 24° C., inhibition of growth determined photometrically 4-5 days after application, read-out: disease control. Here is the method: 11 Mycosphaerella arachidis (Cercospora arachidicola)/Liquid Culture (Early Leaf Spot): Conidia of the fungus from cryogenic storage were directly mixed into nutrient broth (PDB potato dextrose broth). After placing a DMSO solution of test compound into a 96-well microtiter plate at an application rate of 200 ppm, the nutrient broth containing the fungal spores was added. The test plates were incubated at 24° C. and the inhibition of growth was determined photometrically 4-5 days after application.

Data set [8] concerns Sclerotinia sclerotiorum. As to the kind of experiment: Sclerotinia sclerotiorum / liquid culture (cottony rot). The following applies: PDB, 24° C., inhibition of growth determined visually 3-4 days after application, read-out: disease control. In kind it is cell-based. Here is the method: 17 Sclerotinia sclerotiorum/liquid culture (cottony rot): Mycelia fragments of a newly grown liquid culture of the fungus were directly mixed into nutrient broth (PDB potato dextrose broth). After placing a (DMSO) solution of the test compounds into a microtiter plate (96-well format) the nutrient broth containing the fungal material was added. The test plates were incubated at 24° C. and the inhibition of growth was determined visually 3-4 days after application.

In data set [9] the test system is Fusarium culmorum. As to the kind of experiment: microbe, parasite or virus in culture. In kind it is cell-based. The following applies: read-out: disease control.
Data set [10] concerns Botryotinia fuckeliana (Botrytis cinerea). As to the kind of experiment: Botryotinia fuckeliana (Botrytis cinerea) / liquid culture (gray mould). It counts as cell-based. The note with it: Vogels broth, 24° C., inhibition of growth determined photometrically 3-4 days after application, read-out: disease control. Here is the method:
9 Botryotinia fuckeliana (Botrytis cinerea)/liquid culture (Gray mould): Conidia of the fungus from cryogenic storage were directly mixed into nutrient broth (Vogels broth). After placing a DMSO solution of test compound into a 96-well microtiter plate at an application rate of 200 ppm, the nutrient broth containing the fungal spores was added. The test plates were incubated at 24° C. and the inhibition of growth was determined photometrically 3-4 days after application.

In patent US20180000089A1, “NOVEL MICROBIOCIDES” (Syngenta Participations AG, priority 2015, published 2018) one finds inhibition of growth, melting point and pest or weed control data, which are given here for 21 compounds.

As usually defined, the melting point is the temperature, or range, at which the solid turns liquid. `Cc1ccc(-c2cc3c(cc2Cl)COB3O)cc1C` [Compound 2] returned a melting point of 155 to 165 °C. Further, the inhibition of growth at 200 ppm in data set [1] was ≥ 80%. For the same compound, the inhibition of growth at 200 ppm in [2] was ≥ 80%. Further, the inhibition of growth at 200 ppm in data set [3] was ≥ 80%. For the same compound, the inhibition of growth at 200 ppm in data set [4] is ≥ 80%.

Turning to `OB1OCc2cc(Cl)c(-c3cc(Br)ccc3-n3cccn3)cc21` [Compound 17], the inhibition of growth at 200 ppm in data set [5], in [1], in data set [2], in data set [3] and in data set [4] was ≥ 80% each time.

Compound `N#Cc1ccc(-c2cc3c(cc2F)COB3O)cc1` [Compound 29] yielded a melting point of 270 to 272 °C. The inhibition of growth at 200 ppm in data set [5] is ≥ 80%. Moreover, in [4], the inhibition of growth at 200 ppm is ≥ 80%.

`COc1ccc(OC)c(-c2cc3c(cc2Cl)COB3O)c1` [Compound 12] showed a melting point of 95 to 115 °C. In addition, the inhibition of growth at 200 ppm in [5] was ≥ 80%. Further, the inhibition of growth at 200 ppm in data set [1] is ≥ 80%. Besides, the inhibition of growth at 200 ppm in [2] was ≥ 80%. For the same compound, the inhibition of growth at 200 ppm in data set [3] was ≥ 80%. The pest or weed control at 200 ppm in data set [6] is ≥ 80%. Also, the inhibition of growth at 200 ppm in data set [4] is ≥ 80%.

As for `Cc1cc(C2CC2)nc(Nc2cccc(-c3cc4c(cc3Cl)COB4O)c2)n1` [Compound 23], the inhibition of growth at 200 ppm in data set [5] is ≥ 80%.

With `CC(=O)Nc1ccc(F)c(-c2cc3c(cc2Cl)COB3O)c1` [Compound 20, N-[3-(5-chloro-1-hydroxy-3H-2,1-benzoxaborol-6-yl)-4-fluoro-phenyl]acetamide], the inhibition of growth at 200 ppm in [7], in data set [5], in data set [1], in data set [2], in data set [3] and in data set [8] was ≥ 80% throughout. In addition, the inhibition of growth at 200 ppm in data set [9], in [4] and in data set [10] was ≥ 80% each time.

For `Cc1cc(C2CC2)nc(Nc2ccccc2-c2cc3c(cc2Cl)COB3O)n1` [Compound 22], the inhibition of growth at 200 ppm in data set [5] and in data set [10] was ≥ 80% throughout.

As for `COc1ccc(-c2cc3c(cc2F)COB3O)cc1` [Compound 26], the inhibition of growth at 200 ppm in data set [5], in data set [1], in data set [3], in data set [9] and in data set [4] was ≥ 80% throughout.

In the case of `OB1OCc2cc(Cl)c(-c3cccc4[nH]c(-c5cscn5)nc34)cc21` [Compound 21], the inhibition of growth at 200 ppm in [7], in [4] and in [10] was ≥ 80% in each case.

On to `OB1OCc2cc(Cl)c(-c3ccc(O)cc3)cc21` [Compound 11], for which the inhibition of growth at 200 ppm in data set [5] and in [4] was ≥ 80% each time. Also, the pest or weed control at 200 ppm in [6] is ≥ 80%.

As to `Cc1nc2cccc(-c3cc4c(cc3Cl)COB4O)c2s1` [Compound 15, 7-(5-chloro-1-hydroxy-3H-2,1-benzoxaborol-6-yl)-2-methyl-1,3-benzothiazole], the inhibition of growth at 200 ppm in data set [5] and in [4] was ≥ 80% throughout. Further, the pest or weed control at 200 ppm in data set [6] is ≥ 80%.

`COc1cccc(-c2cc3c(cc2F)COB3O)c1` [Compound 27, 5-fluoro-6-(3-methoxy-phenyl)-3H-benzo[c][1,2] oxaborol-1-ol] displayed a melting point of 118 to 120 °C. The inhibition of growth at 200 ppm in data set [7] is ≥ 80%. The inhibition of growth at 200 ppm in data set [5] is ≥ 80%. Besides, in data set [1], the inhibition of growth at 200 ppm was ≥ 80%. The inhibition of growth at 200 ppm in data set [3] is ≥ 80%. Besides, in [8], the inhibition of growth at 200 ppm was ≥ 80%. The pest or weed control at 200 ppm in [6] was ≥ 80%. Further, in data set [9], the inhibition of growth at 200 ppm is ≥ 80%. In addition, in [4], the inhibition of growth at 200 ppm was ≥ 80%.

For the compound `OB1OCc2cc(Cl)c(-c3cccc4ncoc34)cc21` [Compound 16], the inhibition of growth at 200 ppm in data set [5], in [1], in [2], in data set [3] and in data set [4] was ≥ 80% each time.

Take `OB1OCc2cc(Cl)c(-c3cc(-n4cccn4)ccc3Br)cc21` [Compound 18]: the inhibition of growth at 200 ppm in [5], in data set [1], in data set [2], in data set [3] and in [4] was ≥ 80% in each case.

Regarding `Cc1cc(C2CC2)nc(Nc2ccc(-c3cc4c(cc3Cl)COB4O)cc2)n1` [Compound 24], the inhibition of growth at 200 ppm in [5] was ≥ 80%.

For the compound `Cc1nc2cc(-c3cc4c(cc3Cl)COB4O)ccc2s1` [Compound 14, 5-(5-chloro-1-hydroxy-3H-2,1-benzoxaborol-6-yl)-2-methyl-1,3-benzothiazole], the inhibition of growth at 200 ppm in data set [5] and in data set [4] was ≥ 80% each time. Further, the pest or weed control at 200 ppm in [6] is ≥ 80%.

As for `OB1OCc2cc(F)c(-c3ccc(Cl)c(Cl)c3)cc21` [Compound 34], the melting point was 243 to 245 °C.

On to `Cc1nc2c(-c3cc4c(cc3Cl)COB4O)cccc2s1` [Compound 13, 4-(5-chloro-1-hydroxy-3H-2,1-benzoxaborol-6-yl)-2-methyl-1,3-benzothiazole], for which the inhibition of growth at 200 ppm in data set [5], in data set [1], in data set [2], in data set [3] and in data set [4] was ≥ 80% in each case.

In the case of `COc1ccccc1-c1cc2c(cc1F)COB2O` [Compound 25], the melting point lay in the range of 50 to 65 °C. For the same compound, the inhibition of growth at 200 ppm in data set [7] is ≥ 80%. Further, in [5], the inhibition of growth at 200 ppm is ≥ 80%. The inhibition of growth at 200 ppm in [1] was ≥ 80%. Besides, the inhibition of growth at 200 ppm in [3] is ≥ 80%. Also, in data set [8], the inhibition of growth at 200 ppm is ≥ 80%. Further, the pest or weed control at 200 ppm in data set [6] is ≥ 80%. Moreover, the inhibition of growth at 200 ppm in data set [9] is ≥ 80%. In addition, the inhibition of growth at 200 ppm in data set [4] is ≥ 80%.

For the compound `COC(=O)c1cc(-c2cc3c(cc2Cl)COB3O)ccc1OC` [Compound 30], the inhibition of growth at 200 ppm in data set [5] and in data set [4] was ≥ 80% each time.

For the compound `CC(=O)Nc1ccc(F)cc1-c1cc2c(cc1Cl)COB2O` [Compound 19, N-[2-(5-chloro-1-hydroxy-3H-2,1-benzoxaborol-6-yl)-4-fluoro-phenyl]acetamide], the inhibition of growth at 200 ppm in data set [1], in data set [9] and in [4] was ≥ 80% each time.
